Measurements taken from US8466104B2, “Therapeutically active alpha MSH analogues” (AbbVie Inc., priority 2005, dated 2013).

How the values were obtained:
[1] = system: myocardial infarction induced by LAD occlusion in rats; assay: Inhibition of myocardial infarction size induced by 60 minutes occlusion of the left anterior descending coronary artery in rats (experimental setup 5); format: in vivo, rat; conditions: for dose at which the maximal inhibitory effect on infarction size is achieved: 200 and 1000 μg/kg tested; for effect on myocardial infarction size (in contrast to / compared to a-MSH) / myocardial infarction size, necrotic area as % of area of risk: 3 hours after LAD-reperfusion
Description: Inhibition of Myocardial Infarction Size, Induced by 60 Minutes Occlusion of the Left Anterior Descending Coronary Artery in Rats.
Barrier-bred and specific pathogen-free female Wistar rats (250 g) are obtained from Charles River, Hannover, Germany. The animals are housed in a temperature (22-24° C.) and moisture (40-70%) controlled room with a 12-hour light-dark cycle (light on from 6:00 A.M. to 6:00 P.M.). All animals are given free access to tap water and a pelleted rat diet containing approximately 140 mmol/kg of sodium, 275 mmol/kg potassium and 23% protein (Altromin catalogue no. 1310, Altromin International, Lage, Germany). […] One week later the Rats are anaesthetized in an inhalation chamber with 4% isoflurane in O2. After insertion of an endotracheal tube the animal is artificially ventilated with 1.0% isoflurane in O2 using af Hugo Basile Rodent ventilator. Tidal volume is 8-10 ml/kg b.w. and respiratory rate 75 […], which maintains arterial pH between 7.35 and 7.45. During surgery the animal is placed on a heated table that maintains rectal temperature at 37-38° C. Standard ECG (second lead) is measured using a Hugo Sachs ECG Coupler and collected on line at 4,000 Hz in PowerLab. After parasternal thoracotomy and opening of the pericardium the left anterior descending coronary artery (LAD) is localized visually. An atraumatic 6-0 silk suture with an occluder that allows reopening of the ligature is placed around the LAD between the pulmonary trunk and the lower right end of the left auricle. After 10 minutes the left anterior descending coronary artery (LAD) is occluded. Successful occluding is confirmed by alterations in ECG (ST-segment elevation and increase in R-wave amplitude) and by fall in MAP. Reperfusion is made after 60 minutes by opening the occluder. Control rats are sham-operated.
The rats are subjected to one of the following i.v treatments: • Vehicle: 0.5 ml 150 mM NaCl. • a-MSH: 200 μg or 1000 μg a-melanocyte stimulating hormone/kg b.w. in 0.5 ml 150 mM NaCl.
Test compound 200 μg or 1000 μg test compound/kg b.w. in 0.5 ml 150 mM NaCl.
Treatment is given 5 minutes prior to reperfusion.
The rats are kept anaesthetized after the ischemia/reperfusion and re-occluding of the LAD is performed after three hours reperfusion. During this period ECG and MAP are measured continuously. Then Evans Blue dye (1 ml; 2% w/v) is administered i.v. to determine the size of the ischemic area. The heart is removed and cut into horizontal slices to determine the size of the ischemic area and to separate the ischemic myocardium from the non-ischemic myocardium. The ischemic area is isolated and incubated in a 0.5% triphenyltetrazolium chloride solution for 10 minutes at 37° C. The size of the necrotic tissue is then measured by used of a computerized image program. An additional setup of animals are treated with buprenorphine post-surgical and returned to there cages for measurement of left ventricular end diastolic pressure (LVEDP) two weeks later in order to evaluate the effect of the pharmacological treatment on the development of congestive heart failure. LVEDP is measured using a 2F microtip catheters inserted into the left ventricle via the right carotid artery. Isoflurane concentration is adjusted to stabilize mean arterial pressure (MAP) at 85-90 mmHg.
Data are presented as mean±S.E. Within group comparisons are analysed with Student's paired t test. Between group comparisons are performed by one way analysis of variance followed by Fishers Least Significant Difference test. Differences are considered significant at the 0.05 level.

[2] = system: LPS induced TNF-α production by human leucocytes (PBMC); assay: Inhibition of LPS induced TNF-a production by human leucocytes in vitro (experimental setup 1); format: cell-based; conditions: for dose dependent reduction of LPS induced TNF-a accumulation / inhibitory effect on TNF-a accumulation compared to native a-MSH / LPS induced TNF-a accumulation, % of the maximal response (LPS-Vehicle): human leucocyte suspension; for LPS induced TNF-a accumulation, % of the maximal response (LPS-Vehicle): 10 ng LPS/mL, 18 hours, maximal effect (10^−7 M); for concentration at which the maximal inhibitory effect on LPS-induced TNF-α production was achieved: human lymphocyte suspension
Description: Inhibition of LPS Induced TNF-a Production by Human Leucocytes In Vitro
20 mL human blood is collected in vacutainer tubes containing EDTA. PBMC is isolated using Ficoll-Paque Plus as in Amersham's Instruction 71-7167-00 AD, 2002-06. PBMC is counted using Tryphan Blue Solution (Sigma) and incubated in RPMI 1640, (Applichem), supplemented with 10 mM Hepes (Sigma), 2 mM L-glutamin (Sigma), 0.1% BSA (Sigma) and 50U/50 μg/mL Penicillin/Streptomycin (Sigma) in the concentration 5×10^5 cells/mL. The isolated PBMC is incubated in a humidified 5% CO2, 95% air atmosphere, at 37° C., in 24 well flat-bottomed plates (Corning Incorporated) with medium, 10 ng LPS/mL (Sigma), and test compound. After 18 hours the samples are centrifuged, and TNF-α in the supernatants is measured using Tumour Necrosis Factor Alpha [(h)TNF-α] from Human Biotrak ELISA System (Amersham).
The samples are incubated as following per donor: • PBMC's in RPMI (Time Control) • PBMC's with 10 ng LPS/mL (Vehicle) • PBMC's, 10 ng LPS/mL, 10^−17M a-MSH or a-MSH analogue • PBMC's, 10 ng LPS/mL, 10^−15M a-MSH or a-MSH analogue • PBMC's, 10 ng LPS/mL, 10^−13M a-MSH or a-MSH analogue • PBMC's, 10 ng LPS/mL, 10^−11M a-MSH or a-MSH analogue • PBMC's, 10 ng LPS/mL, 10^−9M a-MSH or a-MSH analogue • PBMC's, 10 ng LPS/mL, 10^−7M a-MSH or a-MSH analogue
All samples are diluted from an initial stock solution between 1.4×10^−4M and 1.8×10^−3M. All solutions are handled in BSA coated vials in order to protect against binding of the compound to the surface of the vials.
Data is presented as mean±SE. The effect of test compounds on LPS induced TNF-a liberation is expressed as percentage of the TNF-a accumulation in the LPS-vehicle group. All comparisons are analysed with Student's unpaired t-test. Differences are considered significant at probability levels (p) of 0.05.

[3] = 14 days after 60 minutes occlusion of LAD

## Ac-Lys-Lys-Lys-Lys-Lys-Lys-Ser-Tyr-Ser-Nle-Glu-His-(D-Phe)-Arg-Trp-Gly-Lys-Pro-Val-NH2 (KKKKKKSYSXEHFRWGKPV; N-acetyl, Nle, D-Phe, C-amide) [a-MSH analogue #2]
[1]; 200 μg/kg body weight
  reduction in infarction size compared to Vehicle treated rats: ~27%
[1]
  dose at which the maximal inhibitory effect on infarction size is achieved: 200 μg/kg body weight
  effect on myocardial infarction size (in contrast to / compared to a-MSH): reduces the myocardial infarction size
[1]; 200 μg/kg body weight iv
  myocardial infarction size, necrotic area as % of area of risk: 37.4±5.1 % of area of risk
[1]; listed as SEQ ID NO: 5
  effect on myocardial infarction size (in contrast to / compared to a-MSH): reduced the infarction size to a higher degree
[1]; [3]
  effect on LVEDP / post-infarctional congestive heart failure: marked reduction in LVEDP
[2]
  dose dependent reduction of LPS induced TNF-a accumulation: dose dependently reduce
  inhibitory effect on TNF-a accumulation compared to native a-MSH: markedly more pronounced
  LPS induced TNF-a accumulation, % of the maximal response (LPS-Vehicle): 42±111%
  concentration at which the maximal inhibitory effect on LPS-induced TNF-α production was achieved: 10^−7 M

## Ser-Tyr-Ser-Met-Glu-His-Phe-Arg-Trp-Gly-Lys-Pro-Val [a-MSH, reference compound]
[2]
  dose dependent reduction of LPS induced TNF-a accumulation: dose dependently reduce
  LPS induced TNF-a accumulation, % of the maximal response (LPS-Vehicle): 73±9%
[2]; listed as α-MSH
  concentration at which the maximal inhibitory effect on LPS-induced TNF-α production was achieved: 10^−7 M

## Ac-Lys-Lys-Lys-Lys-Lys-Lys-Ser-Tyr-Ser-Met-Glu-His-Phe-Arg-Trp-Gly-Lys-Pro-Val-NH2 (Ac-KKKKKKSYSMEHFRWGKPV-NH2) [a-MSH analogue #1]
[1]; 200 μg/kg body weight
  reduction in infarction size compared to Vehicle treated rats: ~30%
[1]; 1000 μg/kg body weight
  reduction in infarction size compared to Vehicle treated rats: ~30%
[1]
  dose at which the maximal inhibitory effect on infarction size is achieved: 200 μg/kg body weight
  effect on myocardial infarction size (in contrast to / compared to a-MSH): reduces the myocardial infarction size
[1]; 200 μg/kg body weight iv
  myocardial infarction size, necrotic area as % of area of risk: 35.7±5.6 % of area of risk
[1]; 1000 μg/kg body weight iv
  myocardial infarction size, necrotic area as % of area of risk: 35.0±4.4 % of area of risk
[1]; listed as SEQ ID NO: 1
  effect on myocardial infarction size (in contrast to / compared to a-MSH): reduced the infarction size to a higher degree
[1]; [3]
  effect on LVEDP / post-infarctional congestive heart failure: marked reduction in LVEDP
[1]; 14 days after 60 minutes occlusion of LAD, 200 μg/kg bw
  left ventricular end diastolic pressure (LVEDP): 10.4±2.9 mmHg
[2]
  dose dependent reduction of LPS induced TNF-a accumulation: dose dependently reduce
  inhibitory effect on TNF-a accumulation compared to native a-MSH: markedly more pronounced
  LPS induced TNF-a accumulation, % of the maximal response (LPS-Vehicle): 47±2%
  concentration at which the maximal inhibitory effect on LPS-induced TNF-α production was achieved: 10^−7 M

## Ac-Lys-Lys-Lys-Lys-Lys-Lys-Ser-Tyr-Ser-Nle-Glu-His-D-Nal-Arg-Trp-Gly-Lys-Pro-Val-NH2 (KKKKKKSYSXEHXRWGKPV; not fully specified; N-acetyl, Nle, D-Nal, C-amide) [a-MSH analogue #3]
[1]; 200 μg/kg body weight
  reduction in infarction size compared to Vehicle treated rats: ~24%
[1]
  dose at which the maximal inhibitory effect on infarction size is achieved: 200 μg/kg body weight
  effect on myocardial infarction size (in contrast to / compared to a-MSH): reduces the myocardial infarction size
[1]; 200 μg/kg body weight iv
  myocardial infarction size, necrotic area as % of area of risk: 39.0±3.4 % of area of risk
[1]; listed as SEQ ID NO: 9
  effect on myocardial infarction size (in contrast to / compared to a-MSH): reduced the infarction size to a higher degree
[1]; [3]
  effect on LVEDP / post-infarctional congestive heart failure: marked reduction in LVEDP
[2]
  dose dependent reduction of LPS induced TNF-a accumulation: dose dependently reduce
  inhibitory effect on TNF-a accumulation compared to native a-MSH: markedly more pronounced
  LPS induced TNF-a accumulation, % of the maximal response (LPS-Vehicle): 53±13%
